Results published in ChEMBL document CHEMBL1201862, “PubChem BioAssay data set” (2004).
Where a name gives a salt, the structure may show the parent alone.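 Compound exposure: 48 hours, 5 concentrations, 96-well plates. Here, GI50 denotes the concentration required for 50% inhibition of growth.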 The source made the active and inactive calls. No stated cut-off is given here; in the data, active = GI50 up to about 1.1 µM and inactive = higher.

How the values were obtained:
Test in all cases: inhibition of tumour cell growth, NCI panel, 48 h
HCT-116 = system: HCT-116
U-251 = system: U-251
SNB-75 = system: SNB-75
MDA-N = system: MDA-N
UACC-257 = system: UACC-257
MCF7 = system: MCF7
OVCAR-8 = system: OVCAR-8
ACHN = system: ACHN
EKVX = system: EKVX
MDA-MB-231 = system: MDA-MB-231
RXF 393 = system: RXF 393
SF-268 = system: SF-268
A498 = system: A498
SF-539 = system: SF-539
SF-295 = system: SF-295
NCI-H460 = system: NCI-H460
MOLT-4 = system: MOLT-4
MDA-MB-435 = system: MDA-MB-435
DU-145 = system: DU-145
SK-MEL-5 = system: SK-MEL-5

Row | SMILES | GI50 (HCT-116) | GI50 (U-251) | GI50 (SNB-75) | GI50 (MDA-N) | GI50 (UACC-257) | GI50 (MCF7) | GI50 (OVCAR-8) | GI50 (ACHN) | GI50 (EKVX) | GI50 (MDA-MB-231) | GI50 (RXF 393) | GI50 (SF-268) | GI50 (A498) | GI50 (SF-539) | GI50 (SF-295) | GI50 (NCI-H460) | GI50 (MOLT-4) | GI50 (MDA-MB-435) | GI50 (DU-145) | GI50 (SK-MEL-5)
1 | COc1cccc2c1C(=O)c1ccc3cc(CO)cc(O)c3c1C2=O | 0.252 µM (active) | 1.45 µM (inactive) | 4.29 µM (inactive) | 0.19 µM (active) | 0.0879 µM (active) | 0.41 µM (active) | 0.231 µM (active) | 0.509 µM (active) | 1.87 µM (inactive) | 0.594 µM (active) | 1.34 µM (inactive) | 0.815 µM (active) | 3.52 µM (inactive) | 0.329 µM (active) | 3.03 µM (inactive) | 0.304 µM (active) | 0.405 µM (active) | 0.201 µM (active) | 0.733 µM (active) | 0.139 µM (active)
2 | CCOC(=O)C(C(=O)OCC)C1C=CCC2c3ccccc3COCC21 (stereo not given) | 41.1 µM (inactive) | 57.9 µM (inactive) | 96.6 µM (inactive) | 40.7 µM (inactive) | 30.3 µM (inactive) | 31.8 µM (inactive) | 44.2 µM (inactive) | 40.2 µM (inactive) | 40.5 µM (inactive) | > 100 µM (inactive) | > 100 µM (inactive) | 67.5 µM (inactive) | 38.7 µM (inactive) | > 100 µM (inactive) | 43.6 µM (inactive) | 62.1 µM (inactive) | 40.9 µM (inactive) | 36.9 µM (inactive) | > 100 µM (inactive) | 19.1 µM (inactive)
3 | Cc1ccc(S(=O)(=O)[C@@H](Cl)[C@H]2N=C(Cl)NN=C2c2ccccc2)cc1 | 25.1 µM (inactive) | 21.5 µM (inactive) | 27.9 µM (inactive) | 26.1 µM (inactive) | 20.6 µM (inactive) | 26.9 µM (inactive) | 21.1 µM (inactive) | 33.7 µM (inactive) | 37.1 µM (inactive) | 20.1 µM (inactive) | 18.6 µM (inactive) | 18.3 µM (inactive) | 15.5 µM (inactive) | 30.1 µM (inactive) | 41.4 µM (inactive) | 37.1 µM (inactive) | 20.6 µM (inactive) | 22.1 µM (inactive) | 23.2 µM (inactive) | 15.4 µM (inactive)
4 | Cc1cc(Cl)ccc1OCC(=O)Nc1nc(N)nc(N)n1 | > 100 µM (inactive) | > 100 µM (inactive) | > 100 µM (inactive) | > 100 µM (inactive) | > 100 µM (inactive) | > 100 µM (inactive) | > 100 µM (inactive) | > 100 µM (inactive) | > 100 µM (inactive) | > 100 µM (inactive) | > 100 µM (inactive) | > 100 µM (inactive) | > 100 µM (inactive) | > 100 µM (inactive) | > 100 µM (inactive) | > 100 µM (inactive) | > 100 µM (inactive) | > 100 µM (inactive) | > 100 µM (inactive) | > 100 µM (inactive)
5 | O=C(NO)NCCCl | > 100 µM (inactive) | > 100 µM (inactive) | > 100 µM (inactive) | > 100 µM (inactive) | > 100 µM (inactive) | > 100 µM (inactive) | > 100 µM (inactive) | > 100 µM (inactive) | > 100 µM (inactive) | > 100 µM (inactive) | > 100 µM (inactive) | > 100 µM (inactive) | 49.5 µM (inactive) | > 100 µM (inactive) | > 100 µM (inactive) | > 100 µM (inactive) | > 100 µM (inactive) | > 100 µM (inactive) | > 100 µM (inactive) | > 100 µM (inactive)
6 | COc1cc(OC)cc(C(=O)NC2=C(Cl)C(=O)c3ccccc3C2=O)c1 | 0.668 µM (active) | 1.94 µM (inactive) | 2.67 µM (inactive) | 1.91 µM (inactive) | 1.99 µM (inactive) | 2.84 µM (inactive) | 3.1 µM (inactive) | 0.78 µM (active) | 9.75 µM (inactive) | 4.08 µM (inactive) | 1.04 µM (active) | 6.12 µM (inactive) | 14.1 µM (inactive) | 4.45 µM (inactive) | 2.92 µM (inactive) | 2.34 µM (inactive) | 1.67 µM (inactive) | 1.95 µM (inactive) | 4.58 µM (inactive) | 2.04 µM (inactive)
7 | CN[C@@H]1[C@H](O)[C@H](NC)[C@H]2O[C@@]3(O)C(=O)C[C@@H](C)O[C@H]3O[C@@H]2[C@H]1O [SPECTINOMYCIN SULFATE] | > 100 µM (inactive) | > 100 µM (inactive) | > 100 µM (inactive) | > 100 µM (inactive) | > 100 µM (inactive) | > 100 µM (inactive) | > 100 µM (inactive) | > 100 µM (inactive) | > 100 µM (inactive) | > 100 µM (inactive) | > 100 µM (inactive) | > 100 µM (inactive) | > 100 µM (inactive) | > 100 µM (inactive) | > 100 µM (inactive) | > 100 µM (inactive) | > 100 µM (inactive) | > 100 µM (inactive) | > 100 µM (inactive) | > 100 µM (inactive)
8 | O=P(O)(O)CN1CCNCCN(CP(=O)(O)O)CC1 | 8.93 µM (inactive) | > 100 µM (inactive) | > 54.5 µM (inactive) | 13.6 µM (inactive) | > 55.3 µM (inactive) | 8.79 µM (inactive) | 28.4 µM (inactive) | > 100 µM (inactive) | > 80.2 µM (inactive) | 36 µM (inactive) | 28.8 µM (inactive) | 75.2 µM (inactive) | 33.7 µM (inactive) | > 22.1 µM (inactive) | 41.5 µM (inactive) | 11.3 µM (inactive) | 12.5 µM (inactive) | 36.5 µM (inactive) | > 100 µM (inactive) | 14 µM (inactive)
9 | CCOC(=O)C1CCC/C1=N\NC(=N)N.Cc1cc(O)c(C(C)C)cc1S(=O)(=O)O (stereo not given) | > 100 µM (inactive) | > 100 µM (inactive) | 36.2 µM (inactive) | > 100 µM (inactive) | > 100 µM (inactive) | > 100 µM (inactive) | > 100 µM (inactive) | > 100 µM (inactive) | > 100 µM (inactive) | > 100 µM (inactive) | > 100 µM (inactive) | > 100 µM (inactive) | > 100 µM (inactive) | > 100 µM (inactive) | > 100 µM (inactive) | > 100 µM (inactive) | > 100 µM (inactive) | > 100 µM (inactive) | > 100 µM (inactive) | > 100 µM (inactive)
10 | COC(=O)C1=C(C(=O)OC)N(c2ccc(OC)cc2[N+](=O)[O-])C(c2ccc(C)cc2)=CC1c1ccc(OC)cc1OC (stereo not given) | 10.7 µM (inactive) | 6.37 µM (inactive) | 18.7 µM (inactive) | 4.62 µM (inactive) | 23.1 µM (inactive) | 4.05 µM (inactive) | 13.6 µM (inactive) | 18.7 µM (inactive) | 34.5 µM (inactive) | 23.3 µM (inactive) | 5.25 µM (inactive) | 32.9 µM (inactive) | 16 µM (inactive) | 6.61 µM (inactive) | 29 µM (inactive) | 24.5 µM (inactive) | 8.79 µM (inactive) | 5.13 µM (inactive) | 25.2 µM (inactive) | 26.2 µM (inactive)
11 | C=CCn1c(-c2ccc(-c3cs/c(=N\N=O)n3CC=C)cc2)cs/c1=N\N=O | 79.1 µM (inactive) | 61.1 µM (inactive) | 20.9 µM (inactive) | > 100 µM (inactive) | > 100 µM (inactive) | > 100 µM (inactive) | 88.1 µM (inactive) | > 100 µM (inactive) | > 100 µM (inactive) | 23.4 µM (inactive) | 19.1 µM (inactive) | > 100 µM (inactive) | > 100 µM (inactive) | 94.4 µM (inactive) | 91 µM (inactive) | > 100 µM (inactive) | > 100 µM (inactive) | > 100 µM (inactive) | > 100 µM (inactive) | > 100 µM (inactive)
12 | C=C1CC2(CC(c3ccccc3Cl)OC(c3ccccc3Cl)C2)OC1=O (stereo not given) | 1.76 µM (inactive) | 8.07 µM (inactive) | 3.17 µM (inactive) | 1.87 µM (inactive) | 2.08 µM (inactive) | 2.11 µM (inactive) | 2.11 µM (inactive) | 4.51 µM (inactive) | 8.34 µM (inactive) | 1.85 µM (inactive) | 2.12 µM (inactive) | 2.27 µM (inactive) | 9.73 µM (inactive) | 1.96 µM (inactive) | 8.97 µM (inactive) | 5.08 µM (inactive) | 2.4 µM (inactive) | 1.8 µM (inactive) | 6.87 µM (inactive) | 4.3 µM (inactive)
13 | N#Cc1cccc(Nc2ccccc2SSc2ccccc2Nc2cccc(C#N)c2)c1 | 9.06 µM (inactive) | 5.92 µM (inactive) | 8.59 µM (inactive) | 9.23 µM (inactive) | 13.6 µM (inactive) | 7.52 µM (inactive) | 8.11 µM (inactive) | 8.73 µM (inactive) | 13.9 µM (inactive) | 12.2 µM (inactive) | > 10 µM (inactive) | 4.93 µM (inactive) | 9.89 µM (inactive) | 8.79 µM (inactive) | 13.2 µM (inactive) | 7.71 µM (inactive) | 3.13 µM (inactive) | 8.69 µM (inactive) | 19 µM (inactive) | 9.04 µM (inactive)
14 | S=C(S)NCNC(=S)S | > 100 µM (inactive) | > 100 µM (inactive) | > 100 µM (inactive) | > 100 µM (inactive) | > 100 µM (inactive) | > 100 µM (inactive) | > 100 µM (inactive) | > 100 µM (inactive) | > 100 µM (inactive) | > 100 µM (inactive) | > 100 µM (inactive) | > 100 µM (inactive) | 89.7 µM (inactive) | > 100 µM (inactive) | > 100 µM (inactive) | > 100 µM (inactive) | > 100 µM (inactive) | > 100 µM (inactive) | > 100 µM (inactive) | > 100 µM (inactive)
